We go through nine compounds from patent US7034059B2, “Methods of using norfluoxetine” (Sepracor Inc., priority 2001, dated 2006).

Where two headings read alike, the source gives them in different places.

The test system of data set [1] is human lung fibroblast cell line WI-38. Briefly: Inhibition of IL-1β-induced PGE2 production, whole cell-based assay. Particulars: for PGE2 (pg/ml) / PGE2: IL-1β 100 pg/mL, 24 hours; for IC50: Homo sapiens; for anti-inflammatory activity in vitro, R- versus S-enantiomer: conclusion from Tables 1-4. On the procedure:
Compounds were tested for anti-inflammatory activity using a whole cell-based assay, wherein the human lung fibroblast cell line WI-38 was cultured in Eagle's basal media supplemented with 10% fetal calf serum (FCS) in 48-well tissue culture dishes in a humidified 7% CO2 atmosphere at 37° C. When the cells reached confluence, they were fed with fresh media for 24 hours. The media was removed and fresh media, containing either 5% or 10% FCS, was added to the cells. […] Interleukin-1β (Calbiochem) in 0.1% bovine serum albumin in phosphate buffered saline was added in a 1 μL aliquot to give a final concentration of 100 pg/mL. The cells were cultured for 24 hours and the amount of PGE2 secreted into the cell culture media was assayed using a PGE2 enzyme immunoassay kit (Cayman Chemicals, Ann Arbor, Mich.). Inhibition of PGE2 production is indicative of anti-inflammatory activity.
The IC50 values of enantiomerically pure R- and S-norfluoxetine were determined by incubation of the WI-38 cells with varying concentrations of the compounds in question ([…]). The PGE2 produced for each concentration was plotted against the concentration of compound using the 6 safit 4.0 program (Erithacus software) and the IC50 determined by fitting the data to the 4-parameter equation.

Data set [2] in a line: Serum levels of norfluoxetine after fluoxetine treatment (Prozac package insert). Particulars: human, oral, humans, after treatment for 30 days with 40 mg per day of fluoxetine, approximate conversion of ng/ml. It is filed as in vivo. The text has this: It is noteworthy that these values, especially that of R-norfluoxetine, fall within values that may be obtained in serum in humans.

The test system of the next data set is serotonin reuptake. Particulars: Physicians' Desk Reference; cited from earlier work.
[3] abbreviates: Table 1, 10% fetal calf serum-containing media, compound 0.5 uM.
Setting [4] is: Table 1, 10% fetal calf serum-containing media, compound 10 uM.
The mark [5] stands for this setting: Table 2, 5% fetal calf serum-containing media, compound 0.5 uM.
Setting [6] is: Table 2, 5% fetal calf serum-containing media, compound 10 uM.
Where [7] appears, read: Table 3, 10% fetal calf serum-containing media, compound 0.5 uM.
Setting [8] is: Table 3, 10% fetal calf serum-containing media, compound 10 uM.
[9] abbreviates: Table 4, 5% fetal calf serum-containing media, compound 0.5 uM.
Where [10] appears, read: Table 4, 5% fetal calf serum-containing media, compound 10 uM.

With `CNCCC(Oc1ccc(C(F)(F)F)cc1)c1ccccc1` (racemic) [rac-fluoxetine, (±)-N-methyl-γ-[4-(trifluoromethyl)-phenoxy]benzenepropanamine], the “PGE2 (pg/ml)” value in data set [1] (setting [3]), in data set [1] (setting [4]), in data set [1] (setting [5]), in data set [1] (setting [6]) and in data set [1] (setting [10]) was “low” throughout. In addition, the “PGE2” value in data set [1] (setting [7]) was determined as 545 pg/mL; in data set [1] (setting [8]), 156 pg/mL; in data set [1] (setting [9]), 22 pg/mL.
With `CC(C(=O)O)c1cccc(C(=O)c2ccccc2)c1` (racemic) [rac-ketoprofen, ketoprofen], the “PGE2 (pg/ml)” value in data set [1] (setting [4]) and in data set [1] (setting [6]) was “low” in each case. Moreover, the “PGE2” value in data set [1] (setting [5]) came to 119 pg/mL.
As to `NCCC(Oc1ccc(C(F)(F)F)cc1)c1ccccc1` (racemic) [rac-norfluoxetine, (±)-γ-[4-(trifluoromethyl)-phenoxy]benzenepropanamine], the concentration at 30 days in data set [2] lay within 230 to 830 nM. Also, the “PGE2” value in data set [1] (setting [3]) turned out to be 189 pg/mL. Moreover, the “PGE2 (pg/ml)” value in data set [1] (setting [4]), in data set [1] (setting [5]) and in data set [1] (setting [6]) was “low” throughout.
In the case of `C[C@@H](C(=O)O)c1cccc(C(=O)c2ccccc2)c1` [(R)-ketoprofen], the “PGE2 (pg/ml)” value in data set [1] (setting [3]), in data set [1] (setting [4]), in data set [1] (setting [5]) and in data set [1] (setting [6]) was “low” each time.
For `NCC[C@@H](Oc1ccc(C(F)(F)F)cc1)c1ccccc1` [(R)-norfluoxetine, R-norfluoxetine], the IC50 in data set [1] (WI-38, read-out: IC50 (PGE2 produced)) is roughly 790 nM. Besides, the “PGE2” value was 714 pg/mL in data set [1] (setting [3]), 159 pg/mL in data set [1] (setting [4]), 255 pg/mL in data set [1] (setting [5]) and 31 pg/mL in data set [1] (setting [6]). Moreover, the “anti-inflammatory activity in vitro, R- versus S-enantiomer” value in data set [1] is “substantially equipotent”. In addition, in the data set on serotonin reuptake, the “potency in inhibiting serotonin uptake” value is “significantly less potent than racemic fluoxetine”.
With `C[C@H](C(=O)O)c1cccc(C(=O)c2ccccc2)c1` [(S)-ketoprofen], the “PGE2 (pg/ml)” value in data set [1] (setting [3]), in data set [1] (setting [4]) and in data set [1] (setting [6]) was “low” in each case. Besides, the “PGE2” value in data set [1] (setting [5]) stood at 145 pg/mL.
For the compound `NCC[C@H](Oc1ccc(C(F)(F)F)cc1)c1ccccc1` [(S)-norfluoxetine, S-norfluoxetine], in data set [1] (WI-38 cells, 0.009-20 concentrations, 4-parameter fit, read-out: IC50 (PGE2 produced)), the half-inhibitory concentration (IC50) is roughly 1400 nM. The “PGE2” value in data set [1] (setting [3]) was 809 pg/mL; in data set [1] (setting [4]), 486 pg/mL; in data set [1] (setting [5]), 483 pg/mL; in data set [1] (setting [6]), 112 pg/mL. For the same compound, the “anti-inflammatory activity in vitro, R- versus S-enantiomer” value in data set [1] was “substantially equipotent”. For the same compound, in the data set with serotonin reuptake, the “potency in inhibiting serotonin uptake” value is “potent and selective serotonin uptake inhibition”.
On to `Cc1ccc(-c2cc(C(F)(F)F)nn2-c2ccc(S(N)(=O)=O)cc2)cc1` [celebrex], for which the “PGE2 (pg/ml)” value in data set [1] (setting [3]), in data set [1] (setting [4]), in data set [1] (setting [6]), in data set [1] (setting [7]), in data set [1] (setting [8]) and in data set [1] (setting [9]) was “low” each time. Moreover, the “PGE2 (pg/ml)” value in data set [1] (setting [10]) was “low”. The “PGE2” value in data set [1] (setting [5]) was 16 pg/mL.
On to `CNCCC=C1c2ccccc2CCc2ccccc21` [nortriptylene], for which the “PGE2” value is 2040 pg/mL in data set [1] (setting [7]), 648 pg/mL in data set [1] (setting [8]), 880 pg/mL in data set [1] (setting [9]) and 331 pg/mL in data set [1] (setting [10]).

What is called IC50 is the concentration that gives 50% inhibition.
